Assay results as given in patent US20190209472A1, “FORMULATIONS FOR DERMAL DELIVERY OF POLYMER CONJUGATES OF INDOLOCARBAZOLE COMPOUNDS WITH REDUCED EXPOSURE” (Sienna Biopharmaceuticals, Inc., priority 2017, published 2019).
Like-named read-outs stand apart in the source and are kept apart here.

System: lesions of psoriasis vulgaris
Excerpt: This was a Phase I, single-center, randomized, double-blind, placebo-controlled study in male and female patients with stable psoriasis vulgaris aged >18 and <71 years. Sixteen patients were enrolled in 2 treatment groups. […] Patients attended a screening visit within 21 days prior to Day 1. Patients were then admitted to the CPU in the afternoon of Day −1 and remained resident in the CPU until the morning of Day 8. Patients attended a follow-up visit 7 to 10 days after the last treatment administration on Day 7.
The ointment was applied by the CPU staff, using a spatula and finger cot.
Physicians Global Assessment (PGA) scores were assessed at screening, Day 1, Day 7 and at follow-up. Digital photographs of the application sites were also taken on admission to the CPU, Day 7 and at follow-up.

(9S, 10R, 12R)-10-(3′-mPEG2000-1′,3′-oxazolidine-2′,4′-dione)-2,3,9,10,11,12-hexahydro-9-methyl-1-oxo-9,12-epoxy-1H-diindolo[1,2,3-fg:3′,2′,1′-k,l]pyrrolo[3,4-i][1,6] benzodiazocine] [CT327]
(25.0%): Physician Static Global Score 2: MILD, patients (%) (Plaque 2, DAY 1, N = 12) | PGA Erythma 2: LIGHT RED COLOURATION, patients (%) (Plaque 2, DAY 7, N = 12) | PGA Induration 1: MINIMAL PLAQUE ELEVATION, =0.25 MM, patients (%) (Plaque 2, DAY 7, N = 12) | Physician Static Global Score 2: MILD, patients (%) (Plaque 2, DAY 7, N = 12) | PGA Induration 2: MILD PLAQUE ELEVATION, =0.5 MM, patients (%) (Plaque 2, FOLLOW-UP, N = 12) | PGA Scaling 2: MILD, FINE SCALE DOMINATES, patients (%) (Plaque 2, FOLLOW-UP, N = 12) | PGA Erythma 3: MODERATE RED COLOURATION, patients (%) (Plaque 2, SCREENING, N = 12)
(33.3%): PGA Erythma 2: LIGHT RED COLOURATION, patients (%) (Plaque 2, FOLLOW-UP, N = 12) | Physician Static Global Score 2: MILD, patients (%) (Plaque 2, FOLLOW-UP, N = 12) | PGA Erythma 2: LIGHT RED COLOURATION, patients (%) (Plaque 2, SCREENING, N = 12) | PGA Induration 2: MILD PLAQUE ELEVATION, =0.5 MM, patients (%) (Plaque 2, SCREENING, N = 12) | PGA Scaling 3: MODERATE, COARSE SCALE PREDOMINATES, patients (%) (Plaque 2, SCREENING, N = 12) | Physician Static Global Score 2: MILD, patients (%) (Plaque 2, SCREENING, N = 12)
(8.3%): PGA Scaling 3: MODERATE, COARSE SCALE PREDOMINATES, patients (%) (Plaque 2, DAY 1, N = 12) | PGA Scaling 4: MARKED, THICK, NON-TENACIOUS SCALE DOMINATES, patients (%) (Plaque 2, DAY 1, N = 12) | Physician Static Global Score 3: MODERATE, patients (%) (Plaque 2, DAY 1, N = 12) | PGA Erythma 3: MODERATE RED COLOURATION, patients (%) (Plaque 2, DAY 7, N = 12) | PGA Induration 2: MILD PLAQUE ELEVATION, =0.5 MM, patients (%) (Plaque 2, DAY 7, N = 12) | Physician Static Global Score 1: MINIMAL, patients (%) (Plaque 2, DAY 7, N = 12) | PGA Induration 1: MINIMAL PLAQUE ELEVATION, =0.25 MM, patients (%) (Plaque 2, FOLLOW-UP, N = 12) | PGA Scaling 1: MINIMAL, OCCASIONAL FINE SCALE OVER LESS THAN 5% OF THE LESION, patients (%) (Plaque 2, FOLLOW-UP, N = 12) | PGA Induration 1: MINIMAL PLAQUE ELEVATION, =0.25 MM, patients (%) (Plaque 2, SCREENING, N = 12) | PGA Induration 3: MODERATE PLAQUE ELEVATION, =0.75 MM, patients (%) (Plaque 2, SCREENING, N = 12) | PGA Induration 4: MARKED PLAQUE ELEVATION, =1 MM, patients (%) (Plaque 2, SCREENING, N = 12) | PGA Scaling 4: MARKED, THICK, NON-TENACIOUS SCALE DOMINATES, patients (%) (Plaque 2, SCREENING, N = 12) | Physician Static Global Score 4: MARKED, patients (%) (Plaque 2, SCREENING, N = 12) | PGA Induration 2: MILD PLAQUE ELEVATION, =0.5 MM, patients (%) (Plaque 3, DAY 1, N = 12) | PGA Induration 3: MODERATE PLAQUE ELEVATION, =0.75 MM, patients (%) (Plaque 3, DAY 1, N = 12) | PGA Scaling 2: MILD, FINE SCALE DOMINATES, patients (%) (Plaque 3, DAY 1, N = 12) | PGA Scaling 4: MARKED, THICK, NON-TENACIOUS SCALE DOMINATES, patients (%) (Plaque 3, DAY 1, N = 12) | Physician Static Global Score 2: MILD, patients (%) (Plaque 3, DAY 1, N = 12) | Physician Static Global Score 3: MODERATE, patients (%) (Plaque 3, DAY 1, N = 12) | PGA Erythma 2: LIGHT RED COLOURATION, patients (%) (Plaque 3, DAY 7, N = 12) | PGA Erythma 3: MODERATE RED COLOURATION, patients (%) (Plaque 3, DAY 7, N = 12) | PGA Induration 1: MINIMAL PLAQUE ELEVATION, =0.25 MM, patients (%) (Plaque 3, FOLLOW-UP, N = 12) | PGA Induration 2: MILD PLAQUE ELEVATION, =0.5 MM, patients (%) (Plaque 3, FOLLOW-UP, N = 12) | PGA Erythma 2: LIGHT RED COLOURATION, patients (%) (Plaque 3, SCREENING, N = 12) | PGA Induration 2: MILD PLAQUE ELEVATION, =0.5 MM, patients (%) (Plaque 3, SCREENING, N = 12) | PGA Induration 3: MODERATE PLAQUE ELEVATION, =0.75 MM, patients (%) (Plaque 3, SCREENING, N = 12) | PGA Induration 4: MARKED PLAQUE ELEVATION, =1 MM, patients (%) (Plaque 3, SCREENING, N = 12) | PGA Scaling 4: MARKED, THICK, NON-TENACIOUS SCALE DOMINATES, patients (%) (Plaque 3, SCREENING, N = 12) | Physician Static Global Score 2: MILD, patients (%) (Plaque 3, SCREENING, N = 12) | Physician Static Global Score 3: MODERATE, patients (%) (Plaque 3, SCREENING, N = 12) | Physician Static Global Score 4: MARKED, patients (%) (Plaque 3, SCREENING, N = 12)
(16.7%): PGA Scaling 2: MILD, FINE SCALE DOMINATES, patients (%) (Plaque 2, DAY 1, N = 12) | PGA Scaling 1: MINIMAL, OCCASIONAL FINE SCALE OVER LESS THAN 5% OF THE LESION, patients (%) (Plaque 2, DAY 7, N = 12) | PGA Scaling 2: MILD, FINE SCALE DOMINATES, patients (%) (Plaque 2, DAY 7, N = 12) | PGA Scaling 2: MILD, FINE SCALE DOMINATES, patients (%) (Plaque 2, SCREENING, N = 12) | Physician Static Global Score 3: MODERATE, patients (%) (Plaque 2, SCREENING, N = 12) | PGA Erythma 2: LIGHT RED COLOURATION, patients (%) (Plaque 3, DAY 1, N = 12) | PGA Induration 1: MINIMAL PLAQUE ELEVATION, =0.25 MM, patients (%) (Plaque 3, DAY 7, N = 12) | PGA Scaling 2: MILD, FINE SCALE DOMINATES, patients (%) (Plaque 3, DAY 7, N = 12) | Physician Static Global Score 2: MILD, patients (%) (Plaque 3, DAY 7, N = 12) | PGA Erythma 2: LIGHT RED COLOURATION, patients (%) (Plaque 3, FOLLOW-UP, N = 12) | PGA Scaling 2: MILD, FINE SCALE DOMINATES, patients (%) (Plaque 3, FOLLOW-UP, N = 12) | Physician Static Global Score 2: MILD, patients (%) (Plaque 3, FOLLOW-UP, N = 12) | PGA Erythma 3: MODERATE RED COLOURATION, patients (%) (Plaque 3, SCREENING, N = 12) | PGA Scaling 3: MODERATE, COARSE SCALE PREDOMINATES, patients (%) (Plaque 3, SCREENING, N = 12)
